Results from patent US20260327202A1, “COMPOUND CONTAINING 2-METHYL-2-(3-(PIPERIDIN-3-YL)PHENOXY)-2-METHYLPROPANAMIDE SKELETON” (JIANGSU MINGSHENG JUTAI BIOTECHNOLOGY CO. LTD, priority 2023, published 2026).

Tests used:
β-catenin = biological target: T1, β-catenin (Homo sapiens, UniProt P35222); assay: SRP test (Biacore T200), binding to ligand β-catenin; settings: Biacore T200, CM5 chip with β-catenin, HEPES pH 7.4, 0.1% DMSO, 25 °C
T1 sequence (P35222 1-781): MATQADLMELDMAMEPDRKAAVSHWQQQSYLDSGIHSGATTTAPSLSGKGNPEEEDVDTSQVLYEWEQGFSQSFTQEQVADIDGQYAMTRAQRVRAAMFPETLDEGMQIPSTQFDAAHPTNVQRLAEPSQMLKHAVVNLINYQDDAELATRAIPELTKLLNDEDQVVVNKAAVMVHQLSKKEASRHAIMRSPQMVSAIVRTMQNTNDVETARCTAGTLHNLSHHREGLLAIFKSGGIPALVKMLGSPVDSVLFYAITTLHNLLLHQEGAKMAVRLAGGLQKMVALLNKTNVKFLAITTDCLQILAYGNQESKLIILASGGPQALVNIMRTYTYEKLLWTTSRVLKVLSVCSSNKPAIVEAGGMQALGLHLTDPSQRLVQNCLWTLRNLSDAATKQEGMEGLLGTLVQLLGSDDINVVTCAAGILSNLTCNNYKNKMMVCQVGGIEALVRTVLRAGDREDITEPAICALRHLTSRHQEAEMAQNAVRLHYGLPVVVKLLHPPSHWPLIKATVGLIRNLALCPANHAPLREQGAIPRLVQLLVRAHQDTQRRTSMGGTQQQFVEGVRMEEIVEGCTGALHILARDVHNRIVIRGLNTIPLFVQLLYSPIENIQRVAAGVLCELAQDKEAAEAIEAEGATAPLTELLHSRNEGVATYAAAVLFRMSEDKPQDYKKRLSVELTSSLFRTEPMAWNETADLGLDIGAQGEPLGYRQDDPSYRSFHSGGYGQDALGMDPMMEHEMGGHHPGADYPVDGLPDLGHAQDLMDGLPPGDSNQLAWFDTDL
Procedure: • 1. Experimental settings • 1. The analyte is in powder form. • 2. The temperature is 25 °C • 3. The analysis equipment adopts Biacore T200 instrument. • 2. Sample dilution • 1. Ligand β-catenin diluted with HEPES (pH 7.4), 0.5 mg/mL • 2. The analyte was dissolved in DMSO and diluted with 0.1% DMSO HEPES (pH 7.4). • 3. Experimental process • 1. Operate and start according to the standard of Biacore T200 instrument. • 2. Prepare buffer HEPES (pH 7.4) and 500 ml of deionized water for washing syringes (filtered by […] membrane). • 3. Start installing the chip and install the Cm5 chip according to the standard process. • 4. Prepare to start the formal experiment, the buffer will flush the flow path system inside the entire system at a high flow rate. • 5. Choose the appropriate program according to the sample size. • 6. Start capturing the chip and prepare a sufficient volume of ligands β-catenin, EDC/NHS, and blocking solution. The conjugation procedure was started with a conjugation time of 7 min, a flow rate of […], and a final ligand conjugation of approximately 16000RU. • 7. After the conjugation is completed, the sample detection is started, and the analyte binding time is set to 120 s. • Flow rate of 30 μL/min; The dissociation time was 200 s and the flow rate was 30 μL/min. Regeneration time 30 s, • The flow rate is 30 μL/min. • 8. […]

SW480 cells = assay: CCK8 assay, SW480 cells; type: cell-based; settings: CCK-8, SW480 cells, 24 hours incubation at 37 °C, DMEM (2% FBS), OD450-OD600
Procedure: • 1. SW480 Cell plate • Cells digested, counted, and laid a 96-well plate (flat-bottomed transparent) with 10,000 cells/100 ul DMEM (10% FBS) per well; • 2. Observe the cell status on the next day, and start adding medicine after the cells are intact; • 3. Dilute the compound with DMEM (2% FBS) and dilute it in a gradient at concentrations of 20 μM, 10 μM, 5 μM, 2.5 μM, 1.25 μM, 0.625 μM, 0.3125 μM, 0.15625 μM, 0 μM (equal volume DMSO); • 4. Add 100 μl of the above compounds of different concentrations to each well, and make 2 compound wells for each concentration gradient; Leave 3 blank wells (DMEM 2% FBS culture medium only, no cells); • 5. Incubate at 37 °C for 24 hours; • 6. […] Measure absorbance at 450 nm and absorbance at 600 nm (exclude interference from the reagent base color and the absorbance value of the plate itself); • 9. The final absorbance value is OD450 nm-OD600 nm, and the rejection rate is calculated.
Suppression Rate=[(Ac−As)/(Ac−Ab)]×100% • As: absorbance of the experimental wells (medium containing cells, CCK-8, drug to be tested); • Ac: absorbance of the control wells (medium containing cells, CCK-8, no drug to be tested); • Ab: Absorbance of blank wells (medium without cells and drug to be tested, CCK-8).

Kd (β-catenin) [µM]	Compound	other results
760	CC(C)c1ccc(-c2cccc(S(=O)(=O)N3CCCC(c4cccc(OC(C)(C)C(=O)NCC(=O)N5CC[C@@H](CN)C5)c4)C3)c2)cc1 (stereo partly shown) [Compound 115-012]	–
–	CC(C)c1ccc(-c2cccc(S(=O)(=O)N3CCCC(c4cccc(OC(C)(C)C(=O)NCC(=O)N5CCC[C@H]5CCN)c4)C3)c2)cc1 (stereo partly drawn) [Compound 115-014, N-(2-((S)-2-(2-aminoethyl)pyrrolidin-1-yl)-2-oxyethyl)-2-(3-(1-((4′-isopropyl-[1,1′-Biphenyl]-3-yl)sulfonylpiperidine-3-yl)phenoxy)-2-methylpropionamide)]	IC50 (SW480 cells; Homo sapiens, read-out: SW^10 IC50): 52.9 µM
–	CC(C)(Oc1cccc(C2CCCN(C(=O)NCc3ccc(-c4cn[nH]c4)cc3)C2)c1)C(=O)NCC(=O)N1CCCC1CN (stereo not shown) [Compound 115-020]	SW^10 IC50 (SW480 cells): Inactive
284	CC(C)c1ccc(-c2cccc(S(=O)(=O)N3CCCC(c4cccc(OC(C)(C)C(=O)NCC(=O)N5CCC[C@H]5CN)c4)C3)c2)cc1 (stereo partly shown) [Compound 115-010]	–
